Reference: patent US10709707B2, “Methods of treating ocular conditions” (Oyster Point Pharma, Inc., priority 2016, dated 2020)
“And” between values parts separate entries of the source, which are not always exact repeats. Equal values may be shown once. “Also recorded” adds a separate entry of the source. Read-outs that look alike come from different tables or passages of the source.

Key:
α4β2 (rat), a4b2*/a6b2* = assay: Receptor function, [3H]-dopamine release from rat striatal synaptosomes; format: biochemical
a6/a3b2b3 = a6/a3b2b3 (Homo sapiens, UniProt P17787+P32297+Q15825); assay: Receptor function a6/a3b2b3, Ca++ flux; format: cell-based
[1] = 13-week repeat-dose oral toxicity in Cynomolgus monkeys; format: in vivo, Cynomolgus monkey; conditions: for AUC / Cmax: plasma, po, at the NOAEL (30 mg/kg); for incidence of mild interstitial vacuolization in the heart: 60 mg/kg
Protocol: Compound 1 was given to Cynomolgus monkeys once daily for at least 13 weeks via oral gavage at doses of 10, 30, or 60 mg/kg/day. At the end of the dosing period, 2 monkeys per sex in the high-dose and control dose groups were selected for a recovery of 4 weeks. […] In the surviving monkeys at 60 mg/kg/day, clinical observations included emesis, decreased motor activity, body weight loss, slight increases in QT (up to +16%), QTcB (up to +9.2%), and QTcF (up to +11%) intervals that were associated with slight decreases in heart rate. These findings had resolved by the end of the 4-week recovery period. […] At 30 mg/kg, all animals had emesis, but they had fewer episodes of emesis than the animals dosed at 60 mg/kg. The dose of 30 mg/kg was well tolerated and was considered the NOAEL, Cmax and AUC increased less than proportionally at doses between 10 and 30 mg/kg.

[2] = Single dose pharmacokinetics, rat; format: in vivo, Sprague-Dawley rat; conditions: for AUC(0-t): read-out: AUC0-1
a4b4 = a4b4 (Homo sapiens, UniProt P30926+P43681); assay: Receptor function a4b4, Ca++ flux; format: cell-based
muscarinic M4 = target: T1, muscarinic M4 (Homo sapiens, UniProt P08173); assay: Follow-up dose response binding assay (CEREP)
T1 construct: CEREP (contract laboratory, per the earlier reading)

plasma protein binding = format: in vitro ADME; conditions: mouse, rat, guinea pig, dog, monkey and human plasma; concentrations up to about 113 μM
human α4β2 = human α4β2 (Homo sapiens, UniProt P17787+P43681); assay: Receptor function α4β2, Ca++ flux; format: cell-based
Protocol: There are two types of α4β2-containing nAChR, depending on which subunit occupies the fifth subunit of the pentaineric complex. There is a high sensitivity subtype, (α4β2)2β2, and a low sensitivity subtype, (α4β2)2α4. Targacept used a rudimentary assay to encourage the expression of one subtype over the other based on incubation temperature.

muscle receptor (α1β1δγ) [3] = target: T2, muscle receptor (α1β1δγ) (Homo sapiens, UniProt P02708+P07510+Q07001); assay: Receptor binding muscle receptor, TE-671 membranes
T2 construct: endogenous in cells; host or cells: TE671 (TE-671) cells / membranes (per the earlier reading)

muscle receptor (α1β1δγ) [4] = target: T2, muscle receptor (α1β1δγ); assay: Receptor function muscle receptor, TE671 cells; format: cell-based
[5] = test system: blood pressure, heart rate, ECG; assay: Cardiovascular safety, telemetry in conscious dogs po; format: in vivo, Dog: Beagle
[6] = as above; format: in vivo, Dog: Beagle; conditions: beagle, dog, in vivo; 5, 10, 20 mg/kg po; read-out: terminal half-life (TK)
[7] = [3H] DA release, Rat Striatal Synaptosomes
[8] = [3H]-DA release, rat striatal synaptosomes
[9] = female, cynomolgus monkey, females
[10] = surviving monkeys, 60 mg/kg/day
[11] = Sprague-Dawley, plasma, S-D rat, 30 mg/kg [14C]-Compound 1, oral
[12] = male, Sprague-Dawley, plasma, S-D rat, 0.3 mg/kg Compound 1, oral
[13] = male, Sprague-Dawley, plasma, S-D rat, 3 mg/kg Compound 1, oral
[14] = a4b2 HS (high sensitivity), 29° C., Ca++ Flux
[15] = 2.5, 5, 10 mg/kg po once daily for 5 days

T2 sequence (P11230 24-501): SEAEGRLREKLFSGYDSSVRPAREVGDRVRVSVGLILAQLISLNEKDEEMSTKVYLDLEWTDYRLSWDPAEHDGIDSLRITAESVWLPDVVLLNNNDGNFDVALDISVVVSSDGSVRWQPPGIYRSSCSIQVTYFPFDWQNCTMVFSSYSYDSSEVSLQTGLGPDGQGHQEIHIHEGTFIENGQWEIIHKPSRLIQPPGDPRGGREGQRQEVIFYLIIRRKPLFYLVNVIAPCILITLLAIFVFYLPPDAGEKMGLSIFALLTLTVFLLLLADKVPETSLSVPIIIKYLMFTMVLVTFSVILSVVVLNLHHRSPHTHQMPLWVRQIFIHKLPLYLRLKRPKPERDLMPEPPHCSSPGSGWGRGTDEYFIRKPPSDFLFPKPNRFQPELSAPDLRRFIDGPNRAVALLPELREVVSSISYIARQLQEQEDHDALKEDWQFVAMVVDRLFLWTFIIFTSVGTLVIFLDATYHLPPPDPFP
T2 sequence (P02708 21-457): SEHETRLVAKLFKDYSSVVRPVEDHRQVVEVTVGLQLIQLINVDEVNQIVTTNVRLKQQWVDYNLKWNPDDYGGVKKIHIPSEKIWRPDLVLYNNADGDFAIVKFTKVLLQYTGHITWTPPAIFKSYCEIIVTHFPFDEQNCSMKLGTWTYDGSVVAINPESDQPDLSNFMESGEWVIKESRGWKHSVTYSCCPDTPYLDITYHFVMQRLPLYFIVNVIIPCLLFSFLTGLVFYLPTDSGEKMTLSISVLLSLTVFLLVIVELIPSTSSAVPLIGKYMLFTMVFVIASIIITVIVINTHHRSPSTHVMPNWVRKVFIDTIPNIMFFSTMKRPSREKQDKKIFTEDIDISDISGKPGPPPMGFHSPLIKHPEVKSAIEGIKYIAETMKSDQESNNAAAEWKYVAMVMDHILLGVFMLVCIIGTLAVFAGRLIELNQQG
T2 sequence (Q07001 22-517): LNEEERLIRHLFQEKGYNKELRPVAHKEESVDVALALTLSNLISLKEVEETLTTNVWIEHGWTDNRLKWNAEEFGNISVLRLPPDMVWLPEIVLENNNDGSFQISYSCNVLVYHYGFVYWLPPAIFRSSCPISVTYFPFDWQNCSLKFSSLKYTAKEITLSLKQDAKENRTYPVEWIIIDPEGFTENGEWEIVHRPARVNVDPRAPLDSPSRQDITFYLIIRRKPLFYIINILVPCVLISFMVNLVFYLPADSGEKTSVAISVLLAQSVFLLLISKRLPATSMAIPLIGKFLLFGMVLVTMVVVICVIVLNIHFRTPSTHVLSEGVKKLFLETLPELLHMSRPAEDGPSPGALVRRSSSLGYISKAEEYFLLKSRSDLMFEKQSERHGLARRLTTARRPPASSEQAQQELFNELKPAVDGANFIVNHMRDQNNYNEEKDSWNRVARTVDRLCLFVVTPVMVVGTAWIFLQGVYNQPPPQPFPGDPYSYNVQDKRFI
T2 sequence (P07510 23-517): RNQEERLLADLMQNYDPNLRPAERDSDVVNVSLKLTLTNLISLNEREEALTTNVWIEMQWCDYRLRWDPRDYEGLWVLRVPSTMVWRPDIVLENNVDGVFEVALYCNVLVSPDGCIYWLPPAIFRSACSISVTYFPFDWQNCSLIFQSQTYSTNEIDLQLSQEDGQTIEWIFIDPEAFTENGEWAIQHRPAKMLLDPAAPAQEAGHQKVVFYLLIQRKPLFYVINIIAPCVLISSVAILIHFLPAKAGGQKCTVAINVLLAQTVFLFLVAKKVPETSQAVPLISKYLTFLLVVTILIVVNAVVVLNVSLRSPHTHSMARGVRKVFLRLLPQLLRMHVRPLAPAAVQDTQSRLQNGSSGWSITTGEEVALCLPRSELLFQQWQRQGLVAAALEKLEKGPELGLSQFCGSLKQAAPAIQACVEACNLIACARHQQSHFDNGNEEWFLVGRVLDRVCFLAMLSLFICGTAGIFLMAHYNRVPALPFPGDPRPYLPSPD
human α4β2, sequence (P43681 29-627 limits assumed): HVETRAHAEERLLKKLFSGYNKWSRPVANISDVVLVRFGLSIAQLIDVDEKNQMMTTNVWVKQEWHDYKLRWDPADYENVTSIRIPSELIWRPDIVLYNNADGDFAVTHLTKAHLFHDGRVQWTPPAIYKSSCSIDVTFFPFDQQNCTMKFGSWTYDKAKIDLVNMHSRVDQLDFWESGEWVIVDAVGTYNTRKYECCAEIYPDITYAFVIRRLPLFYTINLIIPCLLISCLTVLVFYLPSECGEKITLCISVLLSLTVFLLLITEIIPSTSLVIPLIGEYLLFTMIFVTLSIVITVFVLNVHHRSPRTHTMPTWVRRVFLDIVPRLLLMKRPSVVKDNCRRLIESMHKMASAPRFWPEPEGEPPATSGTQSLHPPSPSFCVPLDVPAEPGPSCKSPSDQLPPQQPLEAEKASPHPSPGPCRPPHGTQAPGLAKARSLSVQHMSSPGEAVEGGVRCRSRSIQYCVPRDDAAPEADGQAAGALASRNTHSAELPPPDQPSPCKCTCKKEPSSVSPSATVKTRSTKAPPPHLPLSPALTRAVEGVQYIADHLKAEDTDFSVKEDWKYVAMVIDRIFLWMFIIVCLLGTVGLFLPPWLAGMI
human α4β2, sequence (P17787 26-502): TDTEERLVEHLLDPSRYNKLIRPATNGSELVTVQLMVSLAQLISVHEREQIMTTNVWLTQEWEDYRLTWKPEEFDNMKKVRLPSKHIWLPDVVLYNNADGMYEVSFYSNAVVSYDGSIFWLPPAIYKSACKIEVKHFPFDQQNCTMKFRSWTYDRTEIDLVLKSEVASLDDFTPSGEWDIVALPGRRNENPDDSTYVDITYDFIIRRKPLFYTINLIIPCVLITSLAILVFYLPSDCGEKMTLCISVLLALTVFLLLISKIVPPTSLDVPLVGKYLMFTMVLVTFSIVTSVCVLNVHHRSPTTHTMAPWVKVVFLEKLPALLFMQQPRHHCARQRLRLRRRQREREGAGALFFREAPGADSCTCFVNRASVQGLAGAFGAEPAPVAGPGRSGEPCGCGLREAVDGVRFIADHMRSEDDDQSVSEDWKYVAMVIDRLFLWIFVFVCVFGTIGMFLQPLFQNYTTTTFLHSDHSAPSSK
a6/a3b2b3, sequence (Q15825+P32297 fused with the stated changes): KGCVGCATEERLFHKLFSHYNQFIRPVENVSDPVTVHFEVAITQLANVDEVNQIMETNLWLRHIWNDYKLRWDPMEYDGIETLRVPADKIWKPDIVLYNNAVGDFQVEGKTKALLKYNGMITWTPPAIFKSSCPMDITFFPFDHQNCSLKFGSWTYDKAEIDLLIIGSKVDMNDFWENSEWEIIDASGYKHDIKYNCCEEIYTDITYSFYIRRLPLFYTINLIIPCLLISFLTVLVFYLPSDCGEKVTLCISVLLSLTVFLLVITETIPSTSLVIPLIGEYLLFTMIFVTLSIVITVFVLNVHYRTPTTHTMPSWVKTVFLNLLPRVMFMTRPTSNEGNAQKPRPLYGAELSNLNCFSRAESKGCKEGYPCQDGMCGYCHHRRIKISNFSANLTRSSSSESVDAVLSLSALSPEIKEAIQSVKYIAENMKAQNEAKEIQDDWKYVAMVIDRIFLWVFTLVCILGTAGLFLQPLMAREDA
a6/a3b2b3, sequence (P17787 26-502): as the sequence (P17787 26-502) above
a6/a3b2b3, sequence (Q05901 25-458 partner limits assumed): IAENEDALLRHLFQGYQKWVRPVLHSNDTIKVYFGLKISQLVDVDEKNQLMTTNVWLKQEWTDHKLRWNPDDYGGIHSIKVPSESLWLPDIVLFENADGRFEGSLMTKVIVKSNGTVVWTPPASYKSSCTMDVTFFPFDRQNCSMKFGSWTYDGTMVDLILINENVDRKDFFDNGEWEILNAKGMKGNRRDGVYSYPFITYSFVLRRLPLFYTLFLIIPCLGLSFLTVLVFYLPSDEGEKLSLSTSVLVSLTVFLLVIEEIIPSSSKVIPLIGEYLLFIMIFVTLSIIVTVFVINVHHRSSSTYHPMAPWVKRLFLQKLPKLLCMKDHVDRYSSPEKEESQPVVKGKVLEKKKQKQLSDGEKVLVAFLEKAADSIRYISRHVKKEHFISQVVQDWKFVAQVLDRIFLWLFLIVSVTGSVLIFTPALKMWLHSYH
a4b4, sequence (P43681 29-627 limits assumed): as the sequence (P43681 29-627 limits assumed) above
a4b4, sequence (P30926 22-498): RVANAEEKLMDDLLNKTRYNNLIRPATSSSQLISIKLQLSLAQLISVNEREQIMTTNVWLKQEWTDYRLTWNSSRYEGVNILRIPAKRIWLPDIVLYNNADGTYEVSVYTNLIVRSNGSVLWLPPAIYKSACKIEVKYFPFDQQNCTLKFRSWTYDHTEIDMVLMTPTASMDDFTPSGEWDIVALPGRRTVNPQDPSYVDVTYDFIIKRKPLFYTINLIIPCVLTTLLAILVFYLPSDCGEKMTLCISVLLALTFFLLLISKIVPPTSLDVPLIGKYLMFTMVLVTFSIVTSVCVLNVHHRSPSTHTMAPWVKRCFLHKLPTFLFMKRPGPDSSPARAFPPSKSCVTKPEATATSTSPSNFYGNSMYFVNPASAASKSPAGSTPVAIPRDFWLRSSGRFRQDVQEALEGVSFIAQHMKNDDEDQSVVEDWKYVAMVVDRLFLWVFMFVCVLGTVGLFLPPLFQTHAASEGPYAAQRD
T1 sequence (P08173 whole entry): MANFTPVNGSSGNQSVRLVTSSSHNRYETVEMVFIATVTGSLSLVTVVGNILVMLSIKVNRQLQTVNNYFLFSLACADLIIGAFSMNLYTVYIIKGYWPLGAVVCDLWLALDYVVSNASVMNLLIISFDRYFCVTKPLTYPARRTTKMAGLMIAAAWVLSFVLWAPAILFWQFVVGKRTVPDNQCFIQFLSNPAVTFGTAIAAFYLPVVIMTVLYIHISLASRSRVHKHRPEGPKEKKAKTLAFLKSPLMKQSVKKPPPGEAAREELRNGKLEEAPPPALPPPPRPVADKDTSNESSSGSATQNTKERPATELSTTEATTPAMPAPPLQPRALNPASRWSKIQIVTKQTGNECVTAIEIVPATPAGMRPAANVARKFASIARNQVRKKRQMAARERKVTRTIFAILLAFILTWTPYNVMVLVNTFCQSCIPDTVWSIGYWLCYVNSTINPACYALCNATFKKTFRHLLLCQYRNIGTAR

C(=C\[C@H]1CCNC1)/c1cncnc1 [Compound 1, (R)-5-((E)-2-pyrrolidin-3-ylvinyl)pyrimidine]
DA Release ratio (α4β2 (rat), a4b2*/a6b2*; [7]): 0.55 DA
EC50 (α4β2 (rat), a4b2*/a6b2*; [7]): 3.9 µM and 3.93 µM
Emax (α4β2 (rat), a4b2*/a6b2*; [7]): 110 and 114
EC50 (α4β2 (rat), a4b2*/a6b2*; [8]): 3.93 µM
Emax (α4β2 (rat), a4b2*/a6b2*; [8]): 114 % of nicotine
agonist type at the α4β2 subtype (α4β2 (rat), a4b2*/a6b2*; [8]): nM. Compound 1 is a full agonist at the α4β2
(Imax) (a6/a3b2b3; Human a6/a3b2b3): 49
IC50 (a6/a3b2b3; Human a6/a3b2b3): 2.8 µM
DC50 (a6/a3b2b3; Human a6/a3b2b3, Ca++ Flux): 0.031 µM
Dmax (a6/a3b2b3; Human a6/a3b2b3, Ca++ Flux): 99%
EC50 (a6/a3b2b3; Human a6/a3b2b3, Ca++ Flux): 0.47 µM
Emax (a6/a3b2b3; Human a6/a3b2b3, Ca++ Flux): 92%
NOAEL at 13 weeks ([1]; both sexes, cynomolgus monkey, in vivo, Cynomolgus monkeys, oral gavage once daily, 13 weeks): 30 mg/kg
AUC [1, 9]: 2440 ng·h/mL
Cmax [1, 9]: 696 ng/mL
incidence of mild interstitial vacuolization in the heart ([1]; females): 2 of 3
AUC ([1]; male, cynomolgus monkey, males): 1670 ng·h/mL
Cmax ([1]; male, cynomolgus monkey, males): 382 ng/mL
incidence of mild interstitial vacuolization in the heart ([1]; males): 1 of 2
body weight loss vs. Day 1 value ([1]; one monkey at 60 mg/kg/day sacrificed during the fourth week): −22%
increase in QT interval [1, 10]: up to +16%
increase in QTcB interval [1, 10]: up to +9.2%
increase in QTcF interval [1, 10]: up to +11%
Cmax [2, 11]: 1710 ng/mL
Tmax [2, 11]: 0.25 h
AUC(0-t) ([2]; Sprague-Dawley, plasma, S-D rat, 30 mg/kg [14C]-Compound 1, oral, t = 168 h): 3310 ng·h/mL
half-life ([2]; Sprague-Dawley, plasma, S-D rat, 30 mg/kg [14C]-Compound 1, oral, read-out: t1/2 (converted)): 1.2 h
Cmax and AUC0-24 vs dose ([2]; male rats, 3 mg/kg group vs 0.3 mg/kg, oral): higher than dose-proportional
Cmax [2, 12]: 6.51 ng/mL
Tmax [2, 12]: 0.5 h
AUC(0-t) ([2]; male, Sprague-Dawley, plasma, S-D rat, 0.3 mg/kg Compound 1, oral, t = 25 h): 13.5 ng·h/mL
half-life ([2]; male, Sprague-Dawley, plasma, S-D rat, 0.3 mg/kg Compound 1, oral, read-out: t1/2 (converted)): 1.4 h
Cmax [2, 13]: 169 ng/mL
Tmax [2, 13]: 0.167 h
AUC(0-t) ([2]; male, Sprague-Dawley, plasma, S-D rat, 3 mg/kg Compound 1, oral, t = 25 h): 211 ng·h/mL
half-life ([2]; male, Sprague-Dawley, plasma, S-D rat, 3 mg/kg Compound 1, oral, read-out: t1/2 (converted)): 1.4 h
Kp ([2]; male, Sprague-Dawley, rat, brain, oral, 0.3 or 3 mg/kg orally, read-out: brain exposure as share of plasma exposure): ~0.15
half-life ([2]; male, Sprague-Dawley, rat, plasma and brain, po, 0.3 or 3 mg/kg orally, read-out: half-life (plasma and brain concentrations) (converted)): 1.4 h
EC50 (a4b4): 4.3 µM
Emax (a4b4): 98%
Ki (muscarinic M4): 5.8 µM
fraction unbound (plasma protein binding): > 0.87
EC50 (human α4β2; Ca++ flux, SH-EP1 cells expressing human α4β2): 5.3 µM
Emax (human α4β2; Ca++ flux, SH-EP1 cells expressing human α4β2, read-out: Emax): 120%
EC50 (human α4β2; Human a4b2, Ca++ Flux): 5.3 µM
(Imax) (human α4β2; a4b2 HS 29° C., Ca++ Flux): 98
EC50 (human α4β2; [14]): 3.3 µM
IC50 (human α4β2; [14]): 0.43 µM
DC50 (human α4β2; a4b2 LS 37° C., Ca++ Flux): 0.45 µM
Dmax (human α4β2; a4b2 LS 37° C., Ca++ Flux): 98%
EC50 (human α4β2; a4b2 LS (low sensitivity), 37° C., Ca++ Flux): 5.3 µM
Emax (human α4β2; high sensitivity subtype (α4β2)2β2, read-out: Emax): 120%
EC50 (human α4β2; human α4β2-containing nAChR): 0.6 µM
IC50 (human α4β2; low sensitivity subtype (LS)): 0.45 µM
Emax (human α4β2; read-out: Emax compared to nicotine, human α4β2-containing nAChR): 120%
agonist type (human α4β2; α4β2 nicotine receptor subtype): full agonist
Ki (muscle receptor (α1β1δγ) [3]): 36 µM
EC50 (muscle receptor (α1β1δγ) [4]): 15 µM
Emax (muscle receptor (α1β1δγ) [4]; TE-671, Human muscle-type, Ca++ Flux): 42%
Emax (muscle receptor (α1β1δγ) [4]; TE-671, Human muscle-type, Rb+ Flux, single point): 12%
Emax (muscle receptor (α1β1δγ) [4]; TE-671, TE671 cells): 42%
other findings ([5]; 5 mg/kg po): 5 mg/kg produced no other findings.
ventricular extrasystole 10 to 25 minutes after dosing ([5]; 10 mg/kg po): 10 mg/kg was associated with 1
emesis ([5]; 20 mg/kg po): emesis were noted at 20 mg/kg.
lengthening of the QT interval ([5]; 20 mg/kg po): slight lengthening; also recorded: after dosing. In addition, slight
ventricular extrasystole 10 to 25 minutes after dosing ([5]; 20 mg/kg po): 20 mg/kg was associated with 1
PQ interval [5, 15]: tachycardia, and decreased PQ interval.
QRS duration, QT interval, body temperature [5, 15]: There were no changes in the QRS
accumulation after repeat dosing (TK) [5, 15]: sexes. No accumulation was observed after
tachycardia [5, 15]: pressure (mainly diastolic), marked
dose proportionality of Cmax and AUC (TK) ([5]; 2.5, 5, 10 mg/kg po, either sampling day): TK: There were no proportional increases
increase in blood pressure and bursts of sinus tachycardia ([5]; 5, 10, 20 mg/kg po, all dogs): Compound 1 produced a transient and slight
emesis shortly after dosing ([5]; all doses): exhibited emesis
systolic and diastolic blood pressure and heart rate ([5]; oral doses up to 10 mg/kg): non-dose dependent increase
half-life [6]: 1.3 to 4.2 h
